Test results as given in BindingDB's records for doi:10.1016/s0960-894x(00)00142-6 (University of Wales, 2000).

Biological target: Glutathione S-transferase 2 (Onchocerca volvulus)
Assay: The compound was tested for it's inhibitory activity against Onchocerca volvulus Glutathione S-transferase 2

| IC50 [µM] | SMILES |
| --- | --- |
| 48 | CCCCOC(=O)CC(SCC(NC(=O)CCC(N)C(=O)O)C(=O)NCC(=O)O)C(=O)O (centres undefined) [2-[2-(4-Amino-4-carboxy-butyrylamino)-2-(carboxymethyl-carbamoyl)-ethylsulfanyl]-succinic acid 4-butyl ester] |
| 220 | NC(CCC(=O)NC(CSC1CCCC(=O)C1)C(=O)NCC(=O)O)C(=O)O (centres undefined) [2-Amino-4-[1-(carboxymethyl-carbamoyl)-2-(3-oxo-cyclohexylsulfanyl)-ethylcarbamoyl]-butyric acid] |
| 19.1 | N[C@@H](CCC(=O)N[C@@H](CS[C@H](CC(=O)O)C(=O)O)C(=O)NCC(=O)O)C(=O)O [2-[2-(4-Amino-4-carboxy-butyrylamino)-2-(carboxymethyl-carbamoyl)-ethylsulfanyl]-succinic acid] |
| 31.9 | CC(C)C(=O)CC(SCC(NC(=O)CCC(N)C(=O)O)C(=O)NCC(=O)O)c1ccccc1 (centres undefined) [2-Amino-4-[1-(carboxymethyl-carbamoyl)-2-(4-methyl-3-oxo-1-phenyl-pentylsulfanyl)-ethylcarbamoyl]-butyric acid] |
